Reference: US20260258035A1, “FIVE-MEMBERED AND SIX-MEMBERED NITROGEN-CONTAINING COMPOUND, AND INTERMEDIATE, PREPARATION METHOD AND USE THEREOF” (HANGZHOU SYNRX THERAPEUTICS BIOMEDICAL TECHNOLOGY CO., LTD., priority 2022, published 2026)

Assays:
[1] = target: PARG (Homo sapiens, UniProt Q86W56); assay: Biochemical assay (PARG, TFMU-ADPr substrate); details: PARG, TFMU-ADPr substrate
[2] = test system: HCC1806; assay: Cell viability assay (CellTiter-Glo); assay type: cell-based, Human; details: Homo sapiens, HCC1806, 168 h, HCC1806, 7 days, CellTiter-Glo; read-out: IC50 (nM) in cell viability assay

PARG, sequence (Q86W56 whole entry): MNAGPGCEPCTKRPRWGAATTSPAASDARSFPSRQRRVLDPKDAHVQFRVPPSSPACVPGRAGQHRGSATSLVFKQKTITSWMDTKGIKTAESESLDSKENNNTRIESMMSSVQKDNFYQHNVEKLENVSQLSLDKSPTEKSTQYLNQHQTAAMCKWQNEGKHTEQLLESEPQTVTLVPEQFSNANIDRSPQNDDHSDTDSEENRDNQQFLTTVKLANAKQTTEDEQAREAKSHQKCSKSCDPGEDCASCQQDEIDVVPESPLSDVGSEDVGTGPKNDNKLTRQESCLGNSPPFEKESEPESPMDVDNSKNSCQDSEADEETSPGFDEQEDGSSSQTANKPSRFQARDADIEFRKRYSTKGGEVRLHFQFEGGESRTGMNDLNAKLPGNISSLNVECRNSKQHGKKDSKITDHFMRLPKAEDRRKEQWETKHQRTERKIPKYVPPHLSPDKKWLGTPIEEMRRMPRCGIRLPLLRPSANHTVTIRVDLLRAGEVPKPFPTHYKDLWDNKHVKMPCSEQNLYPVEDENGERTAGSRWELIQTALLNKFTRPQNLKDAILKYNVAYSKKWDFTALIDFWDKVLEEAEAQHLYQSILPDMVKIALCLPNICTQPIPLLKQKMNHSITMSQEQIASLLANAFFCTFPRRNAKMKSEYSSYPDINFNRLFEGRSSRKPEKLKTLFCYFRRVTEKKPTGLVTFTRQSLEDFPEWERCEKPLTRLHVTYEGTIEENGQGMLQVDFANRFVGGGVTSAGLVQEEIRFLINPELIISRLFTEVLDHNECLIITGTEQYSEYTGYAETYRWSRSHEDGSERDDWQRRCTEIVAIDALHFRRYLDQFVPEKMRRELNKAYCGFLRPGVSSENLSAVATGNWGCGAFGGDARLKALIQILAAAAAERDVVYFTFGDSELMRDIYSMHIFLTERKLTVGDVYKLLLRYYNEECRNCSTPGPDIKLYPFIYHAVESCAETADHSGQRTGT

SMILES	IC50 [1] [nM]	IC50 [2] [nM]
CC1(NS(=O)(=O)c2cc(N3CCN(C(=O)C4(F)CNC4)CC3)c3cnc(-c4nnc(C(F)(F)F)s4)n3c2)CC1 [Example 317, 8-(4-(3-fluoroazetidine-3-carbonyl)piperazin-1-yl)-N-(1-methylcyclopropyl)-3-(5-(trifluoromethyl)-1,3,4-thiadiazol-2-yl)imidazo[1,5-a]pyridine-6-sulfonamide]	3.54	1140
CNC1(C(=O)N2CCN(c3cc(S(=O)(=O)NC4(C)CC4)cn4c(-c5nnc(C(F)(F)F)s5)ncc34)CC2)CC1 [Example 318, 8-(4-(1-(methylamino)cyclopropane-1-carbonyl)piperazin-1-yl)-N-(1-methylcyclopropyl)-3-(5-(trifluoromethyl)-1,3,4-thiadiazol-2-yl)imidazo[1,5-a]pyridine-6-sulfonamide]	1.84	363
CC1(NS(=O)(=O)c2cc(N3CCN(C(=O)[C@H]4CCN4CCCF)CC3)c3cnc(-c4nnc(C(F)(F)F)s4)n3c2)CC1 [Example 319, (R)-8-(4-(1-(3-fluoropropyl)azetidine-2-carbonyl)piperazin-1-yl)-N-(1-methylcyclopropyl)-3-(5-(trifluoromethyl)-1,3,4-thiadiazol-2-yl)imidazo[1,5-a]pyridine-6-sulfonamide]	5.62	147
CC1(NS(=O)(=O)c2cc(N3CCN(C(=O)[C@H]4CCN4CCF)CC3)c3cnc(-c4nnc(C(F)(F)F)s4)n3c2)CC1 [Example 320, (R)-8-(4-(1-(2-fluoroethyl)azetidine-2-carbonyl)piperazin-1-yl)-N-(1-methylcyclopropyl)-3-(5-(trifluoromethyl)-1,3,4-thiadiazol-2-yl)imidazo[1,5-a]pyridine-6-sulfonamide]	2.71	93.9
CC1(NS(=O)(=O)c2cc(N3CCN(C(=O)C4(C)CCN4)CC3)c3cnc(-c4nnc(C(F)(F)F)s4)n3c2)CC1 (stereo not drawn) [Example 321, 8-(4-(2-methylazetidine-2-carbonyl)piperazin-1-yl)-N-(1-methylcyclopropyl)-3-(5-(trifluoromethyl)-1,3,4-thiadiazol-2-yl)imidazo[1,5-a]pyridine-6-sulfonamide]	2.93	175
CN1CC(F)(C(=O)N2CCN(c3cc(S(=O)(=O)NC4(C)CC4)cn4c(-c5nnc(C(F)(F)F)s5)ncc34)CC2)C1 [Example 322, 8-(4-(3-fluoro-1-methylazetidine-3-carbonyl)piperazin-1-yl)-N-(1-methylcyclopropyl)-3-(5-(trifluoromethyl)-1,3,4-thiadiazol-2-yl)imidazo[1,5-a]pyridine-6-sulfonamide]	16.5	334
CC1(NS(=O)(=O)c2cc(N3CCN(C(=O)[C@H]4C[C@H](F)CN4)CC3)c3cnc(-c4nnc(C(F)(F)F)s4)n3c2)CC1 [Example 323, 8-(4-((2R,4S)-4-fluoropyrrolidine-2-carbonyl)piperazin-1-yl)-N-(1-methylcyclopropyl)-3-(5-(trifluoromethyl)-1,3,4-thiadiazol-2-yl)imidazo[1,5-a]pyridine-6-sulfonamide]	5.41	181
CN1CCC[C@@H]1C(=O)N1CCN(c2cc(S(=O)(=O)NC3(C)CC3)cn3c(-c4nnc(C(F)(F)F)s4)ncc23)CC1 [Example 325, 8-(4-(methyl-D-prolyl)piperazin-1-yl)-N-(1-methylcyclopropyl)-3-(5-(trifluoromethyl)-1,3,4-thiadiazol-2-yl)imidazo[1,5-a]pyridine-6-sulfonamide]	4.46	120
CC1(NS(=O)(=O)c2cc(N3CCN(C(=O)C4NCCS4)CC3)c3cnc(-c4nnc(C(F)(F)F)s4)n3c2)CC1 (stereo not drawn) [Example 326, N-(1-methylcyclopropyl)-8-(4-(thiazolidine-2-carbonyl)piperazin-1-yl)-3-(5-(trifluoromethyl)-1,3,4-thiadiazol-2-yl)imidazo[1,5-a]pyridine-6-sulfonamide]	4.82	257
COC1(C(=O)N2CCN(c3cc(S(=O)(=O)NC4(C)CC4)cn4c(-c5nnc(C(F)(F)F)s5)ncc34)CC2)CCC1 [Example 327, 8-(4-(1-methoxycyclobutane-1-carbonyl)piperazin-1-yl)-N-(1-methylcyclopropyl)-3-(5-(trifluoromethyl)-1,3,4-thiadiazol-2-yl)imidazo[1,5-a]pyridine-6-sulfonamide]	0.15	6.13

Second part, the molecule after the results:

IC50 [1] [nM]	IC50 [2] [nM]	SMILES
1.21	55.6	COC(C)C(=O)N1CCN(c2cc(S(=O)(=O)NC3(C)CC3)cn3c(-c4nnc(C(F)(F)F)s4)ncc23)CC1 (stereo not drawn) [Example 328, 8-(4-(2-methoxypropanoyl)piperazin-1-yl)-N-(1-methylcyclopropyl)-3-(5-(trifluoromethyl)-1,3,4-thiadiazol-2-yl)imidazo[1,5-a]pyridine-6-sulfonamide]
7.64	187	CC1(NS(=O)(=O)c2cc(N3CCN(C(=O)c4ccno4)CC3)c3cnc(-c4nnc(C(F)(F)F)s4)n3c2)CC1 [Example 329, 8-(4-(isoxazole-5-carbonyl)piperazin-1-yl)-N-(1-methylcyclopropyl)-3-(5-(trifluoromethyl)-1,3,4-thiadiazol-2-yl)imidazo[1,5-a]pyridine-6-sulfonamide]
0.44	78.1	CC(C)C(=O)N1CCN(c2cc(S(=O)(=O)NC3(C)CC3)cn3c(-c4nnc(C(F)F)s4)ncc23)C[C@H]1CO [Example 331, (S)-3-(5-(difluoromethyl)-1,3,4-thiadiazol-2-yl)-8-(3-(hydroxymethyl)-4-isobutyrylpiperazin-1-yl)-N-(1-methylcyclopropyl)imidazo[1,5-a]pyridine-6-sulfonamide]
10.8	745	CN1CC[C@@H]1C(=O)N1CCN(c2c(F)c(S(=O)(=O)NC3(C)CC3)cn3c(-c4nnc(C(F)(F)F)s4)ncc23)CC1 [Example 332, (R)-7-fluoro-8-(4-(1-methylazetidine-2-carbonyl)piperazin-1-yl)-N-(1-methylcyclopropyl)-3-(5-(trifluoromethyl)-1,3,4-thiadiazol-2-yl)imidazo[1,5-a]pyridine-6-sulfonamide]
3.83	310	CN1CC(C(=O)N2CCN(c3cc(S(=O)(=O)NC4(C)CC4)cn4c(-c5nnc(C(F)(F)F)s5)ncc34)CC2)C1 [Example 333, 8-(4-(1-methylazetidine-3-carbonyl)piperazin-1-yl)-N-(1-methylcyclopropyl)-3-(5-(trifluoromethyl)-1,3,4-thiadiazol-2-yl)imidazo[1,5-a]pyridine-6-sulfonamide]
6.31	354	Cc1ncn(CC(=O)N2CCN(c3cc(S(=O)(=O)NC4(C)CC4)cn4c(-c5nnc(C(F)(F)F)s5)ncc34)CC2)n1 [Example 334, 8-(4-(2-(3-methyl-1H-1,2,4-triazol-1-yl)acetyl)piperazin-1-yl)-N-(1-methylcyclopropyl)-3-(5-(trifluoromethyl)-1,3,4-thiadiazol-2-yl)imidazo[1,5-a]pyridine-6-sulfonamide]
6.55	480	Cc1ncnn1CC(=O)N1CCN(c2cc(S(=O)(=O)NC3(C)CC3)cn3c(-c4nnc(C(F)(F)F)s4)ncc23)CC1 [Example 335, 8-(4-(2-(5-methyl-1H-1,2,4-triazol-1-yl)acetyl)piperazin-1-yl)-N-(1-methylcyclopropyl)-3-(5-(trifluoromethyl)-1,3,4-thiadiazol-2-yl)imidazo[1,5-a]pyridine-6-sulfonamide]
4.82	245	CN(C)CC1(O)CCN(c2cc(S(=O)(=O)NC3(C)CC3)cn3c(-c4nnc(C(F)F)s4)ncc23)CC1 [Example 337, 3-(5-(difluoromethyl)-1,3,4-thiadiazol-2-yl)-8-(4-((dimethylamino)methyl)-4-hydroxypiperidin-1-yl)-N-(1-methylcyclopropyl)imidazo[1,5-a]pyridine-6-sulfonamide]
0.48	50	CC1(NS(=O)(=O)c2cc(N3CCN(C(=O)c4ccncc4)CC3)c3cnc(-c4nnc(C(F)F)s4)n3c2)CC1 [Example 338, 3-(5-(difluoromethyl)-1,3,4-thiadiazol-2-yl)-8-(4-isonicotinoylpiperazin-1-yl)-N-(1-methylcyclopropyl)imidazo[1,5-a]pyridine-6-sulfonamide]
3.16	226	CC1(NS(=O)(=O)c2cc(N3CCN(C(=O)c4ncc[nH]4)CC3)c3cnc(-c4nnc(C(F)F)s4)n3c2)CC1 [Example 339, 8-(4-(1H-imidazole-2-carbonyl)piperazin-1-yl)-3-(5-(difluoromethyl)-1,3,4-thiadiazol-2-yl)-N-(1-methylcyclopropyl)imidazo[1,5-a]pyridine-6-sulfonamide]
2.15	1580	CC1(NS(=O)(=O)c2cc(N3CCN(C(=O)c4c[nH]cn4)CC3)c3cnc(-c4nnc(C(F)F)s4)n3c2)CC1 [Example 340, 8-(4-(1H-imidazole-4-carbonyl)piperazin-1-yl)-3-(5-(difluoromethyl)-1,3,4-thiadiazol-2-yl)-N-(1-methylcyclopropyl)imidazo[1,5-a]pyridine-6-sulfonamide]
2.42	139	CC1(NS(=O)(=O)c2cc(N3CCNCC3)c3cnc(-c4nnc(C(F)F)s4)n3c2)CC1 [Example 341, 3-(5-(difluoromethyl)-1,3,4-thiadiazol-2-yl)-N-(1-methylcyclopropyl)-8-(piperazin-1-yl)imidazo[1,5-a]pyridine-6-sulfonamide]
3.04	297	CC1(NS(=O)(=O)c2cc(N3CCO[C@H](CO)C3)c3cnc(-c4nnc(C(F)F)s4)n3c2)CC1 [Example 342, (S)-3-(5-(difluoromethyl)-1,3,4-thiadiazol-2-yl)-8-(2-(hydroxymethyl)morpholino)-N-(1-methylcyclopropyl)imidazo[1,5-a]pyridine-6-sulfonamide]
5.41	852	CC1(NS(=O)(=O)c2cc(N3CCN(C(=O)C4CC(=O)N4)CC3)c3cnc(-c4nnc(C(F)(F)F)s4)n3c2)CC1 (stereo not drawn) [Example 343, N-(1-methylcyclopropyl)-8-(4-(4-oxoazetidine-2-carbonyl)piperazin-1-yl)-3-(5-(trifluoromethyl)-1,3,4-thiadiazol-2-yl)imidazo[1,5-a]pyridine-6-sulfonamide]
